Experimental data: US8048825B2, “Haloalkylsulfonanilide derivatives or salt thereof, herbicide comprising the derivatives as active ingredient, and use of the herbicide” (Nihon Nohyaku Co., Ltd., priority 2006, dated 2011)

Key:
Format in all cases: in vivo
[1] = tested on: Lindernia procumbens; assay: Herbicidal efficacy on paddy field weeds of pre-emergence stage (Pre), Test Example 1; conditions: 1000 g/ha as active ingredient, examined after 21 days
Method in brief: (§1)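 Pre-emergence paddy test: 1000 g/ha active ingredient, formulated and water-diluted, dropped onto 5 cm floodwater one day after sowing both weeds in clay loam. After 21 days in greenhouse, inhibition relative to untreated control rated on 0 (0%) to 5 (100%) scale.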

[2] = tested on: Scirpus juncoides; assay: as above; conditions: 1000 g/ha as active ingredient, examined after 21 days
Method in brief: as §1

[3] = tested on: Echinochloa crus-galli; assay: Herbicidal effect on paddy field weeds of post-emergence stage (Post), Test Example 2; conditions: one-leaf stage, 1000 g/ha as active ingredient, examined after 21 days
Method in brief: (§2)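 Post-emergence paddy test: formulated compound added to 5 cm standing water at 1000 g/ha a.i. when weeds reached one-leaf stage in clay loam pots in greenhouse. Growth inhibition rated 21 days later versus untreated control on a 0 (0%) to 5 (100%) scale.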

[4] = tested on: Lindernia procumbens; assay: as above; conditions: one-leaf stage, 1000 g/ha as active ingredient, examined after 21 days
Method in brief: as §2

[5] = tested on: Scirpus juncoides; assay: as above; conditions: one-leaf stage, 1000 g/ha as active ingredient, examined after 21 days
Method in brief: as §2

Compound	Lindernia procumbens pre (herbicidal effect) [1]	Scirpus juncoides pre (herbicidal effect) [2]	Echinochloa crus-galli post (herbicidal effect) [3]	Lindernia procumbens post (herbicidal effect) [4]	Scirpus juncoides post (herbicidal effect) [5]
COC(=O)N(c1ccccc1CN1CCC(C(F)(F)F)(C(F)(F)F)OC1=O)S(=O)(=O)C(F)(F)F [Compound 1-339]	5 (100% herbicidal effect, phytotoxicity)	4 (90%-99% herbicidal effect, phytotoxicity)	4 (90%-99% herbicidal effect, phytotoxicity)	5 (100% herbicidal effect, phytotoxicity)	4 (90%-99% herbicidal effect, phytotoxicity)
CCCOC(=O)N(c1ccccc1CN1CCCCOC1=O)S(=O)(=O)C(F)(F)F [2-4]	4 (90%-99% herbicidal effect, phytotoxicity)	4 (90%-99% herbicidal effect, phytotoxicity)	4 (90%-99% herbicidal effect, phytotoxicity)	4 (90%-99% herbicidal effect, phytotoxicity)	4 (90%-99% herbicidal effect, phytotoxicity)
COC(=O)N(c1ccccc1CN1CCC(C)(c2ccccc2C(F)(F)F)OC1=O)S(=O)(=O)C(F)(F)F (centres unmarked) [Compound 1-394]	5 (100% herbicidal effect, phytotoxicity)	5 (100% herbicidal effect, phytotoxicity)	4 (90%-99% herbicidal effect, phytotoxicity)	5 (100% herbicidal effect, phytotoxicity)	4 (90%-99% herbicidal effect, phytotoxicity)
CCOC(=O)N(c1ccccc1CN1CCC(C)(c2c(F)cccc2F)OC1=O)S(=O)(=O)C(F)(F)F (racemic) [Compound 1-441]	5 (100% herbicidal effect, phytotoxicity)	5 (100% herbicidal effect, phytotoxicity)	5 (100% herbicidal effect, phytotoxicity)	5 (100% herbicidal effect, phytotoxicity)	4 (90%-99% herbicidal effect, phytotoxicity)
Cc1ccccc1C1CCN(Cc2ccccc2NS(=O)(=O)C(F)(F)F)C(=O)O1 (centres unmarked) [Compound 1-283]	5 (100% herbicidal effect, phytotoxicity)	5 (100% herbicidal effect, phytotoxicity)	4 (90%-99% herbicidal effect, phytotoxicity)	5 (100% herbicidal effect, phytotoxicity)	4 (90%-99% herbicidal effect, phytotoxicity)
CCOC(=O)N(c1ccccc1CN1CCC(C)(C2(C)CC2)OC1=O)S(=O)(=O)C(F)(F)F (centres unmarked) [Compound 1-373]	5 (100% herbicidal effect, phytotoxicity)	5 (100% herbicidal effect, phytotoxicity)	4 (90%-99% herbicidal effect, phytotoxicity)	5 (100% herbicidal effect, phytotoxicity)	4 (90%-99% herbicidal effect, phytotoxicity)
CC(C)COC(=O)N(c1ccccc1CN1CCC2(CCCC2)OC1=O)S(=O)(=O)C(F)(F)F [Compound 1-142]	4 (90%-99% herbicidal effect, phytotoxicity)	4 (90%-99% herbicidal effect, phytotoxicity)	4 (90%-99% herbicidal effect, phytotoxicity)	4 (90%-99% herbicidal effect, phytotoxicity)	4 (90%-99% herbicidal effect, phytotoxicity)
CCCCOC(=O)N(c1ccccc1CN1CCCCOC1=O)S(=O)(=O)C(F)(F)F [2-5]	4 (90%-99% herbicidal effect, phytotoxicity)	4 (90%-99% herbicidal effect, phytotoxicity)	4 (90%-99% herbicidal effect, phytotoxicity)	4 (90%-99% herbicidal effect, phytotoxicity)	4 (90%-99% herbicidal effect, phytotoxicity)
CCOC(=O)N(c1ccccc1CN1CCC(CC)(C(F)(F)F)OC1=O)S(=O)(=O)C(F)(F)F (centres unmarked) [Compound 1-93]	5 (100% herbicidal effect, phytotoxicity)	5 (100% herbicidal effect, phytotoxicity)	4 (90%-99% herbicidal effect, phytotoxicity)	5 (100% herbicidal effect, phytotoxicity)	4 (90%-99% herbicidal effect, phytotoxicity)
CCCC1(CC)CCN(Cc2ccccc2N(C(=O)OCC)S(=O)(=O)C(F)(F)F)C(=O)O1 (racemic) [Compound 1-496]	5 (100% herbicidal effect, phytotoxicity)	5 (100% herbicidal effect, phytotoxicity)	4 (90%-99% herbicidal effect, phytotoxicity)	5 (100% herbicidal effect, phytotoxicity)	4 (90%-99% herbicidal effect, phytotoxicity)
CC(C)(C)COC(=O)N(c1ccccc1CN1CCC(C)(C)OC1=S)S(=O)(=O)C(F)(F)F [Compound 1-64]	4 (90%-99% herbicidal effect, phytotoxicity)	4 (90%-99% herbicidal effect, phytotoxicity)	4 (90%-99% herbicidal effect, phytotoxicity)	4 (90%-99% herbicidal effect, phytotoxicity)	4 (90%-99% herbicidal effect, phytotoxicity)
CCCC1(CC)CCN(Cc2ccccc2N(C(=O)Oc2ccccc2)S(=O)(=O)C(F)(F)F)C(=O)O1 (racemic) [Compound 1-501]	5 (100% herbicidal effect, phytotoxicity)	5 (100% herbicidal effect, phytotoxicity)	5 (100% herbicidal effect, phytotoxicity)	5 (100% herbicidal effect, phytotoxicity)	4 (90%-99% herbicidal effect, phytotoxicity)
CCCCC(CC)COC(=O)N(c1ccccc1CN1CCC(CC)(CC)OC1=O)S(=O)(=O)C(F)(F)F (centres unmarked) [Compound 1-109]	4 (90%-99% herbicidal effect, phytotoxicity)	4 (90%-99% herbicidal effect, phytotoxicity)	4 (90%-99% herbicidal effect, phytotoxicity)	4 (90%-99% herbicidal effect, phytotoxicity)	4 (90%-99% herbicidal effect, phytotoxicity)
CC(C)COC(=O)N(c1ccccc1CN1CCC(C)(C)OC1=O)S(=O)(=O)C(F)(F)F [Compound 1-50]	4 (90%-99% herbicidal effect, phytotoxicity)	4 (90%-99% herbicidal effect, phytotoxicity)	4 (90%-99% herbicidal effect, phytotoxicity)	4 (90%-99% herbicidal effect, phytotoxicity)	4 (90%-99% herbicidal effect, phytotoxicity)
CCC1(C(C)C)CCN(Cc2ccccc2N(C(=O)OCC(C)C)S(=O)(=O)C(F)(F)F)C(=O)O1 (racemic) [Compound 1-455]	5 (100% herbicidal effect, phytotoxicity)	5 (100% herbicidal effect, phytotoxicity)	5 (100% herbicidal effect, phytotoxicity)	5 (100% herbicidal effect, phytotoxicity)	4 (90%-99% herbicidal effect, phytotoxicity)
CC(C)(C)COC(=O)N(c1ccccc1CN1CCC(C)(C(F)(F)F)OC1=O)S(=O)(=O)C(F)(F)F (centres unmarked) [Compound 1-86]	4 (90%-99% herbicidal effect, phytotoxicity)	4 (90%-99% herbicidal effect, phytotoxicity)	4 (90%-99% herbicidal effect, phytotoxicity)	4 (90%-99% herbicidal effect, phytotoxicity)	4 (90%-99% herbicidal effect, phytotoxicity)
CCCC1(CC)CCN(Cc2ccccc2NS(=O)(=O)C(F)(F)F)C(=O)O1 (racemic) [Compound 1-494]	5 (100% herbicidal effect, phytotoxicity)	5 (100% herbicidal effect, phytotoxicity)	4 (90%-99% herbicidal effect, phytotoxicity)	5 (100% herbicidal effect, phytotoxicity)	4 (90%-99% herbicidal effect, phytotoxicity)
CCOC(=O)N(c1ccccc1CN1CC(C)(C)COC1=S)S(=O)(=O)C(F)(F)F [Compound 1-36]	4 (90%-99% herbicidal effect, phytotoxicity)	4 (90%-99% herbicidal effect, phytotoxicity)	4 (90%-99% herbicidal effect, phytotoxicity)	4 (90%-99% herbicidal effect, phytotoxicity)	4 (90%-99% herbicidal effect, phytotoxicity)
CCOC(=O)N(c1ccccc1CN1CCC(CC)(CC)OC1=O)S(=O)(=O)C(F)(F)F [Compound 1-104]	4 (90%-99% herbicidal effect, phytotoxicity)	4 (90%-99% herbicidal effect, phytotoxicity)	4 (90%-99% herbicidal effect, phytotoxicity)	4 (90%-99% herbicidal effect, phytotoxicity)	4 (90%-99% herbicidal effect, phytotoxicity)
